Reference: patent publication US20260144251A1, “ANTIMICROBIAL NANOCLAYS COMPRISING CATIONIC ANTIMICROBIALS, METHOD OF PREPARATION AND USES THEREOF” (Polyamyna Nanotech Inc., priority 2019, published 2026)
Converted amounts (≈) assume the structure as drawn. Like-named read-outs stand apart in the source and are kept apart here.

Columns and labels:
Assay in all cases: MIC, microbroth dilution method
[1] = test system: MRSA (SA001); type: cell-based, Staphylococcus aureus
Description: (§1) The antimicrobial activity (minimum inhibitory concentration, MIC) was evaluated by employing microbroth dilution method to determine the lowest concentration of the assayed antimicrobial additive material.

[2] = test system: E. coli (K12); type: cell-based
Description: as §1

[3] = test system: K. pneumoniae (KP001); type: cell-based
Description: as §1

[4] = test system: P. aeruginosa (PA07); type: cell-based
Description: as §1

[5] = test system: A. baumannii (AB034); type: cell-based
Description: as §1

[6] = test system: E. cloacae (EB5); type: cell-based
Description: as §1

[7] = test system: MRSA (SA004); type: cell-based, Staphylococcus aureus
Description: as §1

[8] = test system: A. baumannii (AB30); type: cell-based
Description: as §1

[9] = test system: E. coli (E524); type: cell-based; settings: Escherichia coli
Description: as §1

Compound: Benzalkonium chloride [BAC]
- MIC [1]: 1 µg/mL
- MIC [2]: 16 µg/mL
- MIC [3]: 4 µg/mL
- MIC [4]: 32 µg/mL
- MIC [5]: 2 µg/mL
- MIC [6]: 8 µg/mL

Compound: [H]/N=C(\N/C(=N/[H])NCCCCCCNC(=N)NC(=N)Nc1ccc(Cl)cc1)Nc1ccc(Cl)cc1 [Chlorhexidine]
- MIC ([7]; Staphylococcus aureus, read-out: MIC): 8 µg/mL (≈ 15.8 µM)
- MIC ([3]; Klebsiella pneumoniae, read-out: MIC): < 0.5 µg/mL
- MIC ([4]; Pseudomonas aeruginosa, read-out: MIC): 16 µg/mL (≈ 31.7 µM)
- MIC ([8]; Acinetobacter baumannii, read-out: MIC): 256 µg/mL (≈ 506 µM)
- MIC [9]: 2 µg/mL (≈ 3.96 µM)
- MIC ([6]; Enterobacter cloacae, read-out: MIC): 8 µg/mL (≈ 15.8 µM)

Compound: [Ag] [Ag, Silver]
- MIC [1]: 8 µg/mL
- MIC [2]: 2 µg/mL
- MIC [3]: 8 µg/mL
- MIC [4]: 2 µg/mL
- MIC [5]: 8 µg/mL
- MIC [6]: 32 µg/mL

Compound: Neomycin
- MIC [7]: 4 µg/mL
- MIC [4]: 128 µg/mL
- MIC [8]: 8 µg/mL
- MIC [6]: 4 µg/mL
